Source: patent publication US20220370440A1 (Lead Discovery Center GmbH, priority 2018, published 2022)

Legend:
EGFR T790ML858R = EGFR T790ML858R (Homo sapiens, UniProt P00533, L858R/T790M); experiment: EGFR T790ML858R Lance assay; type: biochemical
Description: (§1) Inhibition is indicated as […] [nM] (“−”=not measured). Compounds having an activity designated as “A” provided an IC50≤100 nM; compounds having an activity designated as “B” provided an 100 nM<IC50≤500 nM; compounds having an activity designated as “C” provided an 500 nM<IC50≤1000 nM; compounds having an activity designated as “D” provided an 1000 nM<IC50≤100000 nM; and compounds having an activity designated as “E” provided an IC50>10000 nM.

A431 = A431 CellTiter-Glo; type: cell-based; details: Homo sapiens, A-431; 72 h compound incubation; read-out: A431 CTG IC50
How it was run: (§2)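 Cells seeded, after 24 h at 37° C/5% CO2 treated with compounds in DMSO at various concentrations for 72 h. Viability from ATP luminescence (CellTiter-Glo); DMSO and 10 μM Staurosporine as controls; IC50 from dose-response fit, plates accepted at Z′ ≥0.5.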

H1975 = H1975 CellTiter-Glo; type: cell-based; details: Homo sapiens, NCI-H1975; 72 h compound incubation; read-out: H1975 CTG IC50
How it was run: as §2

[1] = target: EGFR Exon 20 INSNPH Ba/F3 (Homo sapiens, UniProt P00533, DUP771-773, cells depend on it); experiment: EGFR Exon 20 INSNPH Ba/F3 CellTiter-Glo; type: cell-based; details: CellTiter-Glo, 72 h, read-out: EGFR Exon 20 INSNPH Ba/F3 CTG IC50
How it was run: (§3)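 Seed Ba/F3 cells; 24 h, 37 °C/5% CO2. Add cpds in DMSO, multiple concs; 72 h. CellTiter-Glo, 10 min RT, luminescence. IC50 by curve fit. Z′ ≥0.5 from DMSO vs 10 μM staurosporine.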

EGFR wt = EGFR wt (Homo sapiens, UniProt P00533); experiment: EGFR wt Lance assay; type: biochemical
Chain of EGFR wt (P00533 25-1210): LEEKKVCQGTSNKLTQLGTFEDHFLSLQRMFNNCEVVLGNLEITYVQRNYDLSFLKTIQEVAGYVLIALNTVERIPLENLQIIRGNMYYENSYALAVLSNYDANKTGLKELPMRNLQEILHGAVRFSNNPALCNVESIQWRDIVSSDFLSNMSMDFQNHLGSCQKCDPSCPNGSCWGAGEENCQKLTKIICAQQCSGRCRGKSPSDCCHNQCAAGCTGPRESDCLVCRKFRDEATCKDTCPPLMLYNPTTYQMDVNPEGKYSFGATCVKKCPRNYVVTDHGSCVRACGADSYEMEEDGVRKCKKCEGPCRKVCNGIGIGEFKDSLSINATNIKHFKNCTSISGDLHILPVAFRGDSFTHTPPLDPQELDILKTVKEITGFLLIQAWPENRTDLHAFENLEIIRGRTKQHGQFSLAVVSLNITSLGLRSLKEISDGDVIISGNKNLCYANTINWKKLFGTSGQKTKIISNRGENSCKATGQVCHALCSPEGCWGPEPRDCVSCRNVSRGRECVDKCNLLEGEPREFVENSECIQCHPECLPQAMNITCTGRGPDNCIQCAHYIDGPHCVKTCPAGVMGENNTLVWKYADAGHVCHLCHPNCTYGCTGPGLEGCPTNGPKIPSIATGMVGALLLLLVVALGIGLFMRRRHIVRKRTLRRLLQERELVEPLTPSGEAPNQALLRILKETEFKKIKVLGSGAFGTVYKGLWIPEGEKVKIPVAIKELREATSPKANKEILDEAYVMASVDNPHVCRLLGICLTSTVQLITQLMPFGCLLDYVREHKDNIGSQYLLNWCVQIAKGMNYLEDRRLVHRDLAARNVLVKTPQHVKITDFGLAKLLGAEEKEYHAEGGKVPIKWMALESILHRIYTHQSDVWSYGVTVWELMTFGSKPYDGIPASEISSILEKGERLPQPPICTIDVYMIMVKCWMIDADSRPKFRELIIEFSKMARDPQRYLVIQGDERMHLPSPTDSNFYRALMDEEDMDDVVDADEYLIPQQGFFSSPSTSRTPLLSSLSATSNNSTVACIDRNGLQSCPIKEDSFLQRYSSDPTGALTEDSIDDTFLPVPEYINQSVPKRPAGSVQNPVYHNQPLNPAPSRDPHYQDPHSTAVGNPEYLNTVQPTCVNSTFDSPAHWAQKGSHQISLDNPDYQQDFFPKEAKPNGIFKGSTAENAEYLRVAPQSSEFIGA
Description: as §1

[2] = target: Her2 Exon 20 INSYVMA Ba/F3 (Homo sapiens, UniProt P04626, DUP772-775, cells depend on it); experiment: Her2 Exon 20 INSYVMA Ba/F3 CellTiter-Glo; type: cell-based; details: CellTiter-Glo, 72 h, read-out: Her2 Exon 20 INSYVMA Ba/F3 CTG IC50
Chain of Her2 Exon 20 INSYVMA Ba/F3 (P04626 with tags, fused parts or gaps DUP772-775): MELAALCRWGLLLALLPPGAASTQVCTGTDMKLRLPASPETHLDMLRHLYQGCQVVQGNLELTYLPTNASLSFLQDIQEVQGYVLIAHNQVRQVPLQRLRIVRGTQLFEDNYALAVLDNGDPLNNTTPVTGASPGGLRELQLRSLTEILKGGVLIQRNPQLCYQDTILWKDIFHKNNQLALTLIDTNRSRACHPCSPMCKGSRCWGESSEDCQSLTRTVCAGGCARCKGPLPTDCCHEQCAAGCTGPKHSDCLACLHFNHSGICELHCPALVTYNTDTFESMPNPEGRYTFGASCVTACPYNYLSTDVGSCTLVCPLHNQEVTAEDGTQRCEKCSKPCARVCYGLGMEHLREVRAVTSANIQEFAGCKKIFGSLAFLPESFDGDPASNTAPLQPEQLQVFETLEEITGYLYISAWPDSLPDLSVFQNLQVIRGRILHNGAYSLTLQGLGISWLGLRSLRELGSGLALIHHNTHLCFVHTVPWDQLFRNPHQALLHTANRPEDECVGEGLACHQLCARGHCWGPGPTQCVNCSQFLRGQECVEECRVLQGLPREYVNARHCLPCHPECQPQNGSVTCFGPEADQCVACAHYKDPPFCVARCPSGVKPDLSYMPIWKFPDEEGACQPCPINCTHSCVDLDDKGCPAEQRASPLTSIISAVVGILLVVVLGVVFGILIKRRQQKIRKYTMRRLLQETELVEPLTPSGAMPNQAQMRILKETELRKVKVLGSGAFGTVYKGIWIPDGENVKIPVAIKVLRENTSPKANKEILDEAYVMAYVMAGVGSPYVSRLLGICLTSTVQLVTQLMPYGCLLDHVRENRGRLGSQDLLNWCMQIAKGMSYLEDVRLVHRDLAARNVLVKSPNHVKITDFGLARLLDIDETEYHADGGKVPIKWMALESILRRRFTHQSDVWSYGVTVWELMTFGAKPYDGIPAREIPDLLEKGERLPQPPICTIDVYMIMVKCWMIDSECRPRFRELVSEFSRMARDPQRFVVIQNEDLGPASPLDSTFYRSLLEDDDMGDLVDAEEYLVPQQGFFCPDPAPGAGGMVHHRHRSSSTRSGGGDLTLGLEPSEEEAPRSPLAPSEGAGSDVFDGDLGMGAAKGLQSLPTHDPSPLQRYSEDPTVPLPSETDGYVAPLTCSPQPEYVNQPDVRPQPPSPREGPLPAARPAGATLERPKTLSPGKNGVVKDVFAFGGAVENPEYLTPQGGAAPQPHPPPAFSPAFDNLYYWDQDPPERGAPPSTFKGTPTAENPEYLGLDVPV
How it was run: as §3

HER2 INS YVMA = target: T1, HER2 INS YVMA (Homo sapiens, UniProt P04626, INS775YVMA); experiment: Lance Kinase Activity Assay, HER2 INS YVMA (Her2 Exon 20 INSYVMA Lance); type: biochemical; details: biochemical Lance assay
T1 construct: purchased DPF
T1 sequence (P04626 with tags, fused parts or gaps INS775YVMA): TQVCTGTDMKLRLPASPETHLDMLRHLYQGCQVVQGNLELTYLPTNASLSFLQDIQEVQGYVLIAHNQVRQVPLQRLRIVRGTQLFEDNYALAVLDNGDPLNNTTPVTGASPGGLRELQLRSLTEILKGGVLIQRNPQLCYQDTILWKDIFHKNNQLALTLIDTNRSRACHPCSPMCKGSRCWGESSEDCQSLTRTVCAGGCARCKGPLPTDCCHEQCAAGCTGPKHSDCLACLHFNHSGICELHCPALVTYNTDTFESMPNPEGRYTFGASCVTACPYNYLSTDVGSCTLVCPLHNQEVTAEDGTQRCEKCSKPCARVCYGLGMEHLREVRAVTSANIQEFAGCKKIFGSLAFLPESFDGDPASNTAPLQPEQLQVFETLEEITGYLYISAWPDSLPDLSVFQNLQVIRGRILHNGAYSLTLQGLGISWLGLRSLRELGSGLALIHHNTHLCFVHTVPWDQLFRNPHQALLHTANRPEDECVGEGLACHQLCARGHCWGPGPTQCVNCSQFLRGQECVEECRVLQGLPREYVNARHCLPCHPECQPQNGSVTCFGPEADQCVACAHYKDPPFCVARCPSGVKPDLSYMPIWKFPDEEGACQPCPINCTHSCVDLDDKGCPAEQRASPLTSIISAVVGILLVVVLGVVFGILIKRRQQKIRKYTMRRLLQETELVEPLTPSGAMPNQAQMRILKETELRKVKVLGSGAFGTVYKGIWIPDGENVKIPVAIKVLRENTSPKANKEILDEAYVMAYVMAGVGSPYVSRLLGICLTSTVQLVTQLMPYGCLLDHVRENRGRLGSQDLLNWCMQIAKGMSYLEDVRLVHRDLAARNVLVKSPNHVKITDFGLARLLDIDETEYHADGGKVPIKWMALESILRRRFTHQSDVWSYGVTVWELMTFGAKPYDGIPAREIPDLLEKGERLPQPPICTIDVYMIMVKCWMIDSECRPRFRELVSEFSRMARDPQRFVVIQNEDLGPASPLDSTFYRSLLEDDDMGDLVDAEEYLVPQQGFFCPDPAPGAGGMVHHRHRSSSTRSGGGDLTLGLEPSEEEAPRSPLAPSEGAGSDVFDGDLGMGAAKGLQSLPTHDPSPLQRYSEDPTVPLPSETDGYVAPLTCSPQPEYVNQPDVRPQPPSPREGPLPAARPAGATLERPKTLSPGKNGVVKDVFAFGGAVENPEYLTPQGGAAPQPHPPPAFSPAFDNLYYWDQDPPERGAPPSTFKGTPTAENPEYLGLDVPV
How it was run: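 Kinase phosphorylates a ULight-labelled peptide substrate; Eu anti-phospho antibody gives TR-FRET (ex 340 nm, em 665/615 nm). Compounds in 1:3 serial dilution over 8 steps, reaction started with ATP, 1 h at room temperature, stopped with EDTA-containing detection mix for 1 h. IC50 from sigmoidal dose-response curves.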

Chain of EGFR T790ML858R (P00533 25-1210 T790M/L858R): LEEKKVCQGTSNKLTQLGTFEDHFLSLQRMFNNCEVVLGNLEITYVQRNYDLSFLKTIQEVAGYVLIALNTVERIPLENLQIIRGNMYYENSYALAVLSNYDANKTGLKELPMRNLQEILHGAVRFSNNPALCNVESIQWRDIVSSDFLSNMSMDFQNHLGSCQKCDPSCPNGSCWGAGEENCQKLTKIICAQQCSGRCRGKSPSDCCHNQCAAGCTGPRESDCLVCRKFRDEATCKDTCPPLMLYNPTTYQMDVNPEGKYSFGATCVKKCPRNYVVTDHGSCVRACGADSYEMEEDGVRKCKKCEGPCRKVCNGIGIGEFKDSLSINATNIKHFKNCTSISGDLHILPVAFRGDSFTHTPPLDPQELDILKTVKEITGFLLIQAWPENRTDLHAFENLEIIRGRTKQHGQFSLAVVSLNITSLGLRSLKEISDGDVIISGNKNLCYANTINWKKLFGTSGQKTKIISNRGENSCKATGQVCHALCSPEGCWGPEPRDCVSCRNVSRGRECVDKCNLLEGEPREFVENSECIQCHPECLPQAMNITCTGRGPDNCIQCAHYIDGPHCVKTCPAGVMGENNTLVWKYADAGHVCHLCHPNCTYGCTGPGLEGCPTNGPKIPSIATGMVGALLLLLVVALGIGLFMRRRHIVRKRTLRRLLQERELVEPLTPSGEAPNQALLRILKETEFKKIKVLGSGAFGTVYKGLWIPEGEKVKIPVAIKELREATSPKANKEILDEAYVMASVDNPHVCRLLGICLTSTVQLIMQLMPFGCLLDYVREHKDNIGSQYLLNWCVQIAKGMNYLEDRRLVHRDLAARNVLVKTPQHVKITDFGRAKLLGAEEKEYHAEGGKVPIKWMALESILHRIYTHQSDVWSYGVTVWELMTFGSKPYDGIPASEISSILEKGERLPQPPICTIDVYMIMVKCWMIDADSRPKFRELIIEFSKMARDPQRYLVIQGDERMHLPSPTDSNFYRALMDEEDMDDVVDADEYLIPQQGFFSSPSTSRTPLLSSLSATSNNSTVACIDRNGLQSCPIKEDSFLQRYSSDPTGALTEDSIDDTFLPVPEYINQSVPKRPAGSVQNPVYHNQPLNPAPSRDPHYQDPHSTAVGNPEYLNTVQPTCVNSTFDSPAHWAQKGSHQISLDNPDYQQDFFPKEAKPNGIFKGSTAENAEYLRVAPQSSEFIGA

SMILES | IC50 (EGFR T790ML858R) | IC50 (A431) | IC50 (H1975) | GI50 [1] | IC50 (EGFR wt) | GI50 [2] | IC50 (HER2 INS YVMA)
C=CC(=O)Nc1cc(-c2c(-c3ccc(C4CCN(C)CC4)cc3)[nH]c3nccc(Cl)c23)cc(C)c1C [Example 152, N-(5-(4-chloro-2-(4-(1-methylpiperidin-4-yl)phenyl)-1H-pyrrolo[2,3-b]pyridin-3-yl)-2,3-dimethylphenyl)acrylamide] | ≤ 100 nM | 500 to 1000 nM | ≤ 100 nM | 100 to 500 nM | ≤ 100 nM | 100 to 500 nM | ≤ 100 nM
C=CC(=O)Nc1cc(-c2c(-c3ccc(N(C)CCN(C)C)cc3)[nH]c3ncc(C(=O)O)cc23)ccc1C [Example 153, 3-(3-acrylamido-4-methylphenyl)-2-(4-((2-(dimethylamino)ethyl)(methyl)amino)phenyl)-1H-pyrrolo[2,3-b]pyridine-5-carboxylic acid 2,2,2-trifluoroacetate] | ≤ 100 nM | > 10000 nM | > 10000 nM | > 10000 nM | ≤ 100 nM | > 10000 nM | ≤ 100 nM
C=CC(=O)Nc1cc(-c2c(-c3ccc(CN(C)C)cc3)[nH]c3ncc(C(=O)OC(C)C)cc23)ccc1C [Example 151, isopropyl 3-(3-acrylamido-4-methylphenyl)-2-(4-((dimethylamino)methyl)phenyl)-1H-pyrrolo[2,3-b]pyridine-5-carboxylate] | ≤ 100 nM | 1000 to 100000 nM | 100 to 500 nM | 100 to 500 nM | ≤ 100 nM | 100 to 500 nM | ≤ 100 nM
C=CC(=O)Nc1cc(-c2c(-c3ccc(N4CCN(C)CC4)cc3)[nH]c3ncc(C(=O)NCc4ccncc4)cc23)ccc1C [Example 127, 3-(3-acrylamido-4-methylphenyl)-2-(4-(4-methylpiperazin-1-yl)phenyl)-N-(pyridin-4-ylmethyl)-1H-pyrrolo[2,3-b]pyridine-5-carboxamide] | ≤ 100 nM | 1000 to 100000 nM | 1000 to 100000 nM | 1000 to 10000 nM | ≤ 100 nM | 1000 to 10000 nM | ≤ 100 nM
C=CC(=O)Nc1cc(-c2c(-c3ccc(N4CCN(C)CC4)nc3)[nH]c3ncc(C(=O)OC(C)C)cc23)ccc1C [Example 163, isopropyl 3-(3-acrylamido-4-methylphenyl)-2-(6-(4-methylpiperazin-1-yl)pyridin-3-yl)-1H-pyrrolo[2,3-b]pyridine-5-carboxylate] | ≤ 100 nM | 1000 to 100000 nM | 500 to 1000 nM | 500 to 1000 nM | ≤ 100 nM | 500 to 1000 nM | ≤ 100 nM

Next, values leading:

IC50 (EGFR T790ML858R) | IC50 (A431) | IC50 (H1975) | GI50 [1] | IC50 (EGFR wt) | GI50 [2] | IC50 (HER2 INS YVMA) | SMILES
≤ 100 nM | 1000 to 100000 nM | 100 to 500 nM | 100 to 500 nM | ≤ 100 nM | 500 to 1000 nM | ≤ 100 nM | C=CC(=O)Nc1cc(-c2c(-c3ccc(N4CCN(C)CC4)cc3)[nH]c3ncc(CO)cc23)ccc1C [Example 199, N-(5-(5-(hydroxymethyl)-2-(4-(4-methylpiperazin-1-yl)phenyl)-1H-pyrrolo[2,3-b]pyridin-3-yl)-2-methylphenyl)acrylamide 2,2,2-trifluoroacetate]
≤ 100 nM | 1000 to 100000 nM | 1000 to 100000 nM | 1000 to 10000 nM | ≤ 100 nM | 1000 to 10000 nM | ≤ 100 nM | C=CC(=O)Nc1cc(-c2c(-c3ccc(N4CCN(C)CC4)cc3)[nH]c3ncc(CC(=O)N(C)C)cc23)ccc1C [Example 194, N-(5-(5-(2-(dimethylamino)-2-oxoethyl)-2-(4-(4-methylpiperazin-1-yl)phenyl)-1H-pyrrolo[2,3-b]pyridin-3-yl)-2-methylphenyl)acrylamide 2,2,2-trifluoroacetate]
≤ 100 nM | 1000 to 100000 nM | 100 to 500 nM | 100 to 500 nM | ≤ 100 nM | 100 to 500 nM | ≤ 100 nM | C=CC(=O)Nc1cc(-c2c(-c3ccc(N4CCN(C)CC4)cc3)[nH]c3ncc(CC(=O)OC(C)C)cc23)ccc1C [Example 190, isopropyl 2-(3-(3-acrylamido-4-methylphenyl)-2-(4-(4-methylpiperazin-1-yl)phenyl)-1H-pyrrolo[2,3-b]pyridin-5-yl)acetate 2,2,2-trifluoroacetate]
